Assay results reported in US12364429B2, “Compositions and methods for a universal clinical test for olfactory dysfunction” (The Rockefeller University, priority 2017, dated 2025).

Tested on: trigeminal system
Test: Lateralization task (odorant applied into only one nostril)
Format: in vivo, human
Conditions: pure concentration; number of correct tasks out of 20; eucalyptol 4 trials, vanillin 6 trials
Excerpt: SMELL-S and SMELL-R were created with four different mixtures of 30 molecules drawn from a panel of 109 monomolecular, intensity-matched chemicals. These odorants were selected from stimuli utilized in previous psychophysical studies (21, 38). We used only molecules that minimally activated the trigeminal system, because such stimuli can be detected by anosmic subjects (39, 40). A characteristic of trigeminal activation by a molecule is a fresh, cold, burning, eucalyptus, pungent, or tickling sensation. We used a lateralization task in which an odorant is applied into only one nostril to assign a lateralization score to each molecule. It is possible to localize the stimulated nostril if it activates the trigeminal system. In contrast, it is much harder to localize an olfactory stimulus (41). Lateralization tasks were self-administered by one investigator. Two disposable squeeze bottles were placed in a device facilitating simultaneous squeezing and stimuli delivery in each nostril. Only one bottle was filled with an odor stimulus. The tip of each bottle was fitted with a foam piece that conformed to the investigator's nostril, and placed at the entrance of each nostril. The investigator squeezed both bottles simultaneously and attempted to localize which nostril had received the stimulus. After each task, the device was spun on a rotating platform to randomize the odor-stimulus side. […]

| Compound | lateralization score (median) |
| --- | --- |
| CC12CCC(CC1)C(C)(C)O2 [eucalyptol] | 20 |
| COc1cc(C=O)ccc1O [vanillin] | 6.5 |
